According to patent US20100056627A1, “PHARMACEUTICAL COMPOSITIONS OF ALKYL GALLATES” (priority 2006, published 2010):
Values after ≈ are worked out from the molar mass of the structure shown. Values joined by “and” are separate entries in the source; they are usually repeats but may differ in a detail not shown here. Equal entries are not always repeated. Where two headings read alike, the source gives them in different places.

Experiments:
[1] = system: gram-positive and gram-negative bacteria; assay: MIC (minimum growth inhibition concentration), 2-fold serial agar plate dilution on Mueller Hinton II Agar, with concomitant alkyl gallate and salt; conditions: with isoamyl gallate at or below MIC and NaCl
[2] = system: clinical isolates MRSA and MSSA; conditions: for Recrystalized octyl gallate MIC: sodium ascorbate 0.5 mg/ml; for MIC50 / MIC: Staphylococcus aureus, MRSA|MSSA; for MIC50: read-out: MIC50, 24 h MIC, MRSA, trisodium citrate medium
fungi (mold) = assay: MIC of octyl gallate against fungi (mold) with trisodium citrate and propyl gallate; format: cell-based; conditions: for MIC: 24 h, read-out: Octyl gallate MIC, SDA (+0.9% trisodium citrate), 24 hr, triplicate
influenza virus B/T/1/05 = assay: Time course of virucidal activity at 37° C., infectivity by plaque assay in MDCK cells (FIGS. 6 to 12); format: cell-based
Experimental: The experiments in FIGS. 7 to 12 were carried out at 37° C. The infectivity of viruses was determined using MDCK cells by the plaque assay method.
This virucidal activity of octyl gallate was reinforced by propyl gallate also against influenza virus A/Aichi (H3N2) in the same manner as above.

[3] = system: Candida albicans ATCC 10231; assay: Time required for killing mold, octyl gallate and propyl gallate (FIG. 2); format: cell-based; conditions: concomitant use of octyl gallate and propyl gallate, FIG. 2
Text: FIG. 2 is a graph showing shortening of the time required for killing mold by the concomitant use of octyl gallate and propyl gallate against Candida albicans ATCC 10231.

[4] = system: influenza virus A/Aichi (H3N2); assay: Virucidal activity against influenza virus A/Aichi (H3N2) (Table 16); conditions: for No of plaques: Table 16
[5] = system: influenza virus in MDCK cells; format: cell-based
MRSA COL strain = assay: Time required for killing bacteria, octyl gallate and propyl gallate (FIG. 1); format: cell-based, Staphylococcus aureus; conditions: concomitant use of octyl gallate and propyl gallate
Text: FIG. 1 is a graph showing shortening of the time required for killing bacteria by the concomitant use of octyl gallate and propyl gallate against MRSA COL strain.

CCCCCCCCOC(=O)c1cc(O)c(O)c(O)c1 [octyl gallate]
MIC of octyl gallate lower than that of chlorhexidine gluconate, maximum [1]: ≤ 640 times
Recrystalized octyl gallate MIC ([2]; MHA (+0.9% disodium hydrogen citrate), DDW, 24 h): 0.625 µg/mL and 1.25 µg/mL
Recrystalized octyl gallate MIC ([2]; MHA (+0.9% trisodium citrate), propyl gallate 100 mg/L (with J-1216), 24 h): 1.25 µg/mL
Recrystalized octyl gallate MIC ([2]; MHA (+0.9% trisodium citrate), propyl gallate 200 mg/L (with J-1216), 24 h): 0.625 µg/mL and 1.25 µg/mL
octyl gallate concentration at which all strains were killed ([2]; MRSA (21 strains) and MSSA (8 strains), concomitant propyl gallate 50 mg/L, disodium hydrogen citrate): 1.25 mg/L
MIC50 ([2]; 24 h, J-1216 600 mg/L): 20 µg/mL (≈ 70.8 µM)
MIC50 ([2]; 24 h, propyl gallate 75 mg/L): 10 µg/mL (≈ 35.4 µM)
MIC50 ([2]; 24 h, propyl gallate 100 mg/L): 2.5 µg/mL (≈ 8.85 µM)
MIC50 ([2]; 24 h, propyl gallate 200 mg/L): 2.5 µg/mL (≈ 8.85 µM)
MIC ([2]; 24 h, read-out: MIC100, 24 h MIC, MRSA, disodium hydrogen citrate medium, DDW): 2.5 µg/mL (≈ 8.85 µM)
MIC ([2]; 24 h, read-out: MIC100, 24 h MIC, MRSA, disodium hydrogen citrate medium, propyl gallate 50 mg/L): 1.25 µg/mL (≈ 4.43 µM)
MIC ([2]; 24 h, read-out: MIC100, 24 h MIC, MRSA, trisodium citrate medium, J-1216 600 mg/L): 50 µg/mL (≈ 177 µM)
MIC ([2]; 24 h, read-out: MIC100, 24 h MIC, MRSA, trisodium citrate medium, propyl gallate 75 mg/L): 10 µg/mL (≈ 35.4 µM)
MIC ([2]; 24 h, read-out: MIC100, 24 h MIC, MRSA, trisodium citrate medium, propyl gallate 100 mg/L): 5 µg/mL (≈ 17.7 µM)
MIC ([2]; 24 h, read-out: MIC100, 24 h MIC, MRSA, trisodium citrate medium, propyl gallate 200 mg/L): 5 µg/mL (≈ 17.7 µM)
MIC ([2]; 24 h, read-out: Octyl gallate MIC, CAMHA, isoamyl gallate 50 μg/mL, 24 h): ≤ 0.0244 µg/mL
MIC ([2]; 24 h, read-out: Recrystalized octyl gallate MIC, MHA (+0.9% disodium hydrogen citrate), sodium ascorbate 0.5 mg/ml, DDW, 24 h): 2.5 µg/mL (≈ 8.85 µM)
MIC ([2]; 24 h, read-out: Recrystalized octyl gallate MIC, MHA (+0.9% disodium hydrogen citrate), sodium ascorbate 0.5 mg/ml, propyl gallate 50 mg/L, 24 h): 1.25 µg/mL (≈ 4.43 µM)
MIC ([2]; 24 h, read-out: Recrystalized octyl gallate MIC, MHA (+0.9% trisodium citrate), sodium ascorbate 0.5 mg/ml, propyl gallate 100 mg/L (with J-1216), 24 h): 2.5 µg/mL (≈ 8.85 µM)
MIC ([2]; 24 h, read-out: Recrystalized octyl gallate MIC, MHA (+0.9% trisodium citrate), sodium ascorbate 0.5 mg/ml, propyl gallate 200 mg/L (with J-1216), 24 h): 2.5 µg/mL (≈ 8.85 µM)
MIC ([2]; 48 h, read-out: Octyl gallate MIC, Isoamyl G none, 48 h, strain = c6 of each row): 31.2 µg/mL (≈ 111 µM)
MIC Range, 24 h MIC, MRSA ([2]; disodium hydrogen citrate medium, DDW): 0.625 to 2.5 µg/mL
MIC Range, 24 h MIC, MRSA ([2]; disodium hydrogen citrate medium, propyl gallate 50 mg/L): 0.625 to 1.25 µg/mL
MIC Range, 24 h MIC, MRSA ([2]; trisodium citrate medium, J-1216 600 mg/L): 20 to 50 µg/mL
MIC Range, 24 h MIC, MRSA ([2]; trisodium citrate medium, propyl gallate 75 mg/L): 2.5 to 10 µg/mL
MIC Range, 24 h MIC, MRSA ([2]; trisodium citrate medium, propyl gallate 100 mg/L): 1.25 to 5 µg/mL
MIC Range, 24 h MIC, MRSA ([2]; trisodium citrate medium, propyl gallate 200 mg/L): 0.0625 to 5 µg/mL
MIC (fungi (mold); phosphate buffer (1 mM), propyl gallate 0): 20 µg/mL
MIC (fungi (mold); propyl gallate 300 μg/mL): 10 µg/mL
MIC (fungi (mold); propyl gallate 1000 μg/mL): 10 µg/mL
antimicrobial activity against fungi (mold) (fungi (mold); […]): reinforced
time required for killing viruses (influenza virus B/T/1/05; concomitant use of octyl gallate and propyl gallate, FIG. 6): shortened to a large extent
virucidal activity of octyl gallate alone (influenza virus B/T/1/05; influenza virus B/T/1/05, FIG. 7): has a virucidal activity
time until the infectivity to cells is lost (influenza virus B/T/1/05; octyl gallate 30 mg/L and propyl gallate 300 mg/L, 37° C., FIG. 12): ≤ 1 min
time required for killing mold [3]: shortened to a large extent
No of plaques ([4]; octyl gallate 20 mg/L, J1816 60 mg/L, NaCitrate 0.90%): 0
No of plaques ([4]; octyl gallate 20 mg/L, propyl gallate 300 mg/L, J1816 150 mg/L, NaCitrate 0.90%): 0
No of plaques ([4]; octyl gallate 40 mg/L, J1816 20 mg/L, NaCitrate 0.90%): 0
No of plaques ([4]; octyl gallate 40 mg/L, propyl gallate 300 mg/L, J1816 210 mg/L, NaCitrate 0.90%): 0
No of plaques ([4]; octyl gallate 60 mg/L, J1816 180 mg/L, NaCitrate 0.90%): 0
No of plaques ([4]; octyl gallate 60 mg/L, J1816 180 mg/L, NaCitrate not given): 0
No of plaques ([4]; octyl gallate 60 mg/L, propyl gallate 300 mg/L, J1816 270 mg/L, NaCitrate 0.90%): 0
No of plaques ([4]; octyl gallate 80 mg/L, J1816 240 mg/L, NaCitrate 0.90%): 0
No of plaques ([4]; octyl gallate 80 mg/L, propyl gallate 300 mg/L, J1816 330 mg/L, NaCitrate 0.90%): 0
No of plaques ([4]; octyl gallate 100 mg/L, J1816 300 mg/L, NaCitrate 0.90%): 0
No of plaques ([4]; octyl gallate 100 mg/L, propyl gallate 300 mg/L, J1816 390 mg/L, NaCitrate 0.90%): 0
virucidal activity of octyl gallate against influenza virus A/Aichi (H3N2) ([4]; with propyl gallate): reinforced
growth inhibition of influenza virus in MDCK cells [5]: markedly reinforced
growth of influenza virus in MDCK cells [5]: inhibits the growth
time required for killing bacteria (MRSA COL strain): shortened to a large extent
